Molecules are shown by their SMILES.

T1 sequence (P13612 34-1032): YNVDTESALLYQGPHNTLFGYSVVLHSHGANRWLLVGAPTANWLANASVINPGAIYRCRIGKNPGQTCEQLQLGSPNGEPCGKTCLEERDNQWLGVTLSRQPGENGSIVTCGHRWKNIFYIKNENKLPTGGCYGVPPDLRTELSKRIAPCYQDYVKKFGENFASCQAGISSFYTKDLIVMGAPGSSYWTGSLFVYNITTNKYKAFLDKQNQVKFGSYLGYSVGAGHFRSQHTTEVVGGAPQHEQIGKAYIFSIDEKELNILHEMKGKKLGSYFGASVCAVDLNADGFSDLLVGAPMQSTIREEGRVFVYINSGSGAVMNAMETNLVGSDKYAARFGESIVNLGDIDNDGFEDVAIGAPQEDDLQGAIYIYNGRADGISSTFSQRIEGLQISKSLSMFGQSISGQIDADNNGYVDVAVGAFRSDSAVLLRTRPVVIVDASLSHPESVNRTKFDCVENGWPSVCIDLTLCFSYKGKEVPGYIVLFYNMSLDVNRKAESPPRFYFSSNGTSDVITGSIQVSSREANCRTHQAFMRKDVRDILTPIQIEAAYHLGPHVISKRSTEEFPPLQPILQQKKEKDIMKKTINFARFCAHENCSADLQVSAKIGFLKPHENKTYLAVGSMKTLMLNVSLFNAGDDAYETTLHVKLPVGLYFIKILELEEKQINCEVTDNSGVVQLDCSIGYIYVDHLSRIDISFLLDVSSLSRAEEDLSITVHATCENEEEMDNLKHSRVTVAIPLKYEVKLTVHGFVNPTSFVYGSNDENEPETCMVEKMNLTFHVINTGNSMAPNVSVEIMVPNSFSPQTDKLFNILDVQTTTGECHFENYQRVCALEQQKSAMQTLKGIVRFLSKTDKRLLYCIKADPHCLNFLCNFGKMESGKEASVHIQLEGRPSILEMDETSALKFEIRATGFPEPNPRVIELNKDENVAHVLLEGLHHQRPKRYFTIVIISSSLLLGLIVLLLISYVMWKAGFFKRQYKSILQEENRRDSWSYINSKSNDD
T1 sequence (P05556 21-798): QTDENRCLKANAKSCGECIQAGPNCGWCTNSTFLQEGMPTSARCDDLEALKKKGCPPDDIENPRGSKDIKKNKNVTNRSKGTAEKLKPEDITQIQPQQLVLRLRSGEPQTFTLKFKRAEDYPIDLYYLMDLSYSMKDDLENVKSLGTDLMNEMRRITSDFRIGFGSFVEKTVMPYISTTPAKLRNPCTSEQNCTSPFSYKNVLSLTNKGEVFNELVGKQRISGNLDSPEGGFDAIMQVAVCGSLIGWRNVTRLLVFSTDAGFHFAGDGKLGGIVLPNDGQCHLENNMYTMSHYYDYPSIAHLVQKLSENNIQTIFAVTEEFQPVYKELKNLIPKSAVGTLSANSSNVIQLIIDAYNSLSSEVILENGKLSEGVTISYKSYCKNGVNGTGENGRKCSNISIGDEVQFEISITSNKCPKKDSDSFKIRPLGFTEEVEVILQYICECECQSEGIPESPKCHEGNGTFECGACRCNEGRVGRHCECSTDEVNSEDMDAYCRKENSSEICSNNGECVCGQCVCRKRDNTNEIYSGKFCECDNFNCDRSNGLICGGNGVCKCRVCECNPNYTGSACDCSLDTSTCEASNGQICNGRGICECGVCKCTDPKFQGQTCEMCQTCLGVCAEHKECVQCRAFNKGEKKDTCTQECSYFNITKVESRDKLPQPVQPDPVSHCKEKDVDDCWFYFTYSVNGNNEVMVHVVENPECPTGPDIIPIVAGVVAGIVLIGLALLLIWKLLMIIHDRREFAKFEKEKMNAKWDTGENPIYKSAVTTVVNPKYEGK

This assay concerns the target T1, VLA-4 integrins on human U937 cells (interaction between VCAM-1 and VLA-4) (Homo sapiens, UniProt P05556+P13612).
T1 construct: the VLA-4 integrins, are offered in their natural form as surface molecules on human U937 cells; host or cells: U937 cells (VLA-4, endogenous); the partner hVCAM-1(1-3)-IgG came from the supernatant of transfected COS cells (ATCC CRL1651)
Briefly: U937/VCAM-1 cell adhesion test (adhesion of U937 cells to hVCAM-1(1-3)-IgG). The assay is classed as cell-based. The conditions noted are these: concentration leading to 50% inhibition of adhesion. The source says:
As a test method for the activity of the compounds of the formula I on the interaction between VCAM-1 and VLA-4, an assay which is specific for this interaction is used. The cellular binding components, i.e. the VLA-4 integrins, are offered in their natural form as surface molecules on human U937 cells (ATCC CRL 1593) which belong to the group of leucocytes. As specific binding components, recombinant soluble fusion proteins prepared by genetic engineering and consisting of the extracytoplasmic domains of human VCAM-1 and the constant region of a human immunoglobulin of the subclass IgG1 are used.
Assay for the Measurement of the Adhesion of U937 Cells (ATCC CRL 1593) to hVCAM-1 (1-3)-IgG
1. Preparation of Human VCAM-1(1-3)-IgG and Human CD4-IgG
A genetic construct for the expression of the extracellular domains of human VCAM-1 was employed, associated with the genetic sequence of the heavy chain of human immunoglobulin IgG1 (hinge, CH2 and CH3 regions), from Dr. Brian Seed, Massachusetts General Hospital, Boston, USA. The soluble fusion protein hVCAM-1(1-3)-IgG contained the three amino-terminal extracellular immunoglobulin-like domains of human VCAM-1 (Damle and Aruffo, Proc. Natl. Acad. Sci. USA 1991, 88, 6403). CD4-IgG (Zettlmeissl et al, DNA and Cell Biology 1990, 9, 347) served as a fusion protein for negative controls. The recombinant proteins were expressed as soluble proteins after DEAE/dextran-mediated DNA-transfection in COS cells (ATCC CRL1651) according to standard procedures (Ausubel et al., Current protocols in molecular biology, John Wiley & Sons, Inc., 1994).
2. Assay for Measurement of the Adhesion of U937 Cells to hVCAM-1(1-3)-IgG
2.1 96-well microtiter test plates (Nunc Maxisorb) were incubated at room temperature for 1 hour with 100 μl/well of a goat-anti-human IgG antibody solution (10 μg/ml in 50 mM tris, pH 9.5). After removing the antibody solution, washing was carried out once with PBS.
2.2 150 μl/well of a blocking buffer (1% BSA in PBS) were incubated on the plates at room temperature for 0.5 hours. After removing the blocking buffer, washing was carried out once with PBS.
2.3 100 μl per well of a cell culture supernatant of transfected COS cells were incubated on the plates at room temperature for 1.5 hours. The COS cells were transfected with a plasmid which codes for the three N-terminal immunoglobulin-like domains of VCAM-1, coupled to the Fc part of human IgG1 (hVCAM-1(1-3)-IgG). The content of hVCAM-1 (1-3)-IgG was about […]. After removing the culture supernatant, washing was carried out once with PBS.
2.4 The plates were incubated at room temperature for 20 minutes with […] of Fc receptor blocking buffer (1 mg/ml of γ-globulin, 100 mM NaCl, 100 μM MgCl2, 100 μM MnCl2, 100 μM CaCl2, 1 mg/ml BSA in 50 mM HEPES, pH 7.5). After removing the Fc receptor blocking buffer, washing was carried out once with PBS.
2.5 20 μl of binding buffer (100 mM NaCl, 100 μM MgCl2, 100 μM MgCl2, 100 μM CaCl2, 1 mg/ml BSA in 50 mM HEPES, pH 7.5), were initially introduced, the substances to be tested were added in 10 μl of binding buffer and the mixture was incubated for 20 minutes. As controls, antibodies against VCAM-1 (BBT, No. BBA6) and against VLA-4
(Immunotech, No. 0764) were used.
2.6 U937 cells were incubated in Fc receptor blocking buffer for 20 minutes and then pipetted in at a concentration of 1×10^6/ml and in an amount of 100 μl per well ([…]).
2.7 The plates were slowly immersed at an angle of 45° in stop buffer (100 mM NaCl, 100 μM MgCl2, 100 μM MnCl2, 100 μM CaCl2 in 25 mM Tris, pH 7.5) and shaken off. The process was repeated.
2.8 50 μl/well of a dye solution (16.7 μg/ml of Hoechst dye 33258, 4% formaldehyde, 0.5% Triton X-100 in PBS) were then incubated on the plates for 15 minutes.
2.9 The plates were shaken off and slowly immersed at an angle of 45° in stop buffer (100 mM NaCl, 100 μM MgCl2, 100 μM MnCl2, 100 μM CaCl2 in 25 mM Tris, pH 7.5). The process was repeated. […]
Usually IC50 stands for the point on the concentration scale where inhibition reaches its midpoint. Low readings indicate higher potency, high ones lower potency. In the case of `CC(C)(C)c1ccc(CN2C(=O)N(CC(=O)N[C@@H](CC(=O)O)C(=O)N[C@H](C(=O)O)c3ccccc3)C(=O)C2(C)c2ccc(C(=N)N)cc2)cc1` (mixture of isomers) [Example 5, ((R,S)-4-(4-(Amino-imino-methyl)phenyl)-3-(4-tert-butyl-benzyl)-4-methyl-2,5-dioxoimidazolidin-1-yl)acetyl-L-aspartyl-L-phenylglycine], the IC50 came to 15 µM. On to `CC1(c2ccc(C(=N)N)cc2)C(=O)N(CC(=O)N[C@@H](CC(=O)O)C(=O)N[C@H](C(=O)O)c2ccccc2)C(=O)N1Cc1c(F)c(F)c(F)c(F)c1F` (mixture of isomers) [Example 6, ((R,S)-4-(4-(Amino-imino-methyl)phenyl)-3-(2,3,4,5,6-pentafluorobenzyl)-4-methyl-2,5-dioxoimidazolidin-1-yl)acetyl-L-aspartyl-L-phenylglycine], for which the 50% inhibitory concentration (IC50) stood at 65 µM. `CC1(c2ccc(C(=N)N)cc2)C(=O)N(CC(=O)N[C@@H](CC(=O)O)C(=O)N[C@H](C(=O)O)c2ccccc2)C(=O)N1Cc1ccc([N+](=O)[O-])cc1` (mixture of isomers) [Example 7, ((R,S)-4-(4-(Amino-imino-methyl)phenyl)-3-(4-nitrobenzyl)-4-methyl-2,5-dioxoimidazolidin-1-yl)acetyl-L-aspartyl-L-phenylglycine]: the half-maximal inhibitory concentration (IC50) is 25 µM.

Take `Cc1cc(C)cc(CN2C(=O)N(CC(=O)N[C@@H](CC(=O)O)C(=O)N[C@H](C(=O)O)c3ccccc3)C(=O)C2(C)c2ccc(C(=N)N)cc2)c1` (mixture of isomers) [Example 8, ((R,S)-4-(4-(Amino-imino-methyl)phenyl)-3-(3,5-dimethylbenzyl)-4-methyl-2,5-dioxoimidazolidin-1-yl)acetyl-L-aspartyl-L-phenylglycine]: 3.5 µM corresponded to half-maximal inhibition (IC50).

In turn, `CC1(c2ccc(C(=N)N)cc2)C(=O)N(CC(=O)N[C@@H](CC(=O)O)C(=O)N[C@H](C(=O)O)c2ccccc2)C(=O)N1Cc1ccccc1CS(=O)(=O)c1ccccc1` (mixture of isomers) [Example 10] came in with an IC50 of 47 µM.

`CC1(c2ccc(C(=N)N)cc2)C(=O)N(CC(=O)N[C@@H](CC(=O)O)C(=O)N[C@H](C(=O)O)c2ccccc2)C(=O)N1Cc1ccccc1-c1ccccc1` (mixture of isomers) [Example 11, ((R,S)-4-(4-(Amino-imino-methyl)phenyl)-3-((2-biphenylyl)methyl)-4-methyl-2,5-dioxoimidazolidin-1-yl)acetyl-L-aspartyl-L-phenylglycine] came in with an IC50 of 62 µM. The same measure for `Cc1ccc(CN2C(=O)N(CC(=O)N[C@@H](CC(=O)O)C(=O)N[C@H](C(=O)O)c3ccccc3)C(=O)C2(C)c2ccc(C(=N)N)cc2)cc1` (mixture of isomers) [Example 12, ((R,S)-4-(4-(Amino-imino-methyl)phenyl)-3-(4-methylbenzyl)-4-methyl-2,5-dioxoimidazolidin-1-yl)acetyl-L-aspartyl-L-phenylglycine]: 2.7 µM; for `CC1(c2ccc(C(=N)N)cc2)C(=O)N(CC(=O)N[C@@H](CC(=O)O)C(=O)N[C@H](C(=O)O)c2ccccc2)C(=O)N1Cc1cccc2ccccc12` (mixture of isomers) [Example 13, ((R,S)-4-(4-(Amino-imino-methyl)phenyl)-3-((1-naphthyl)methyl)-4-methyl-2,5-dioxoimidazolidin-1-yl)acetyl-L-aspartyl-L-phenylglycine]: 3.7 µM. The same measure for `CC1(c2ccc(C(=N)N)cc2)C(=O)N(CC(=O)N[C@@H](CC(=O)O)C(=O)N[C@H](C(=O)O)c2ccccc2)C(=O)N1Cc1ccc(-c2ccccc2)cc1` (mixture of isomers) [Example 14, ((R,S)-4-(4-(Amino-imino-methyl)phenyl)-3-((4-biphenylyl)methyl)-4-methyl-2,5-dioxoimidazolidin-1-yl)acetyl-L-aspartyl-L-phenylglycine]: 0.25 µM.
